Results taken from patent publication US20100003223A1, “METHOD FOR THE PRODUCTION OF MULTICOMPONENT STEM CELLS, RELATIVE KITS AND USES IN THE MEDICAL FIELD” (Metapontium Agrobios S.R.L., priority 2006, published 2010).

Assays:
adipocytes = assay: Determination of cell apoptosis (TACS Klenow In Situ Apoptotic Detection kit); format: cell-based, human
[1] = test system: late-phase adipogenic markers (leptin, GLUT-4); assay: Semiquantitative PCR / RT-PCR of adipogenic marker expression; format: cell-based, human; details: preliminary results; FIG. 1: Ob gene (leptin), 175 μM
Description: In order to amplify the cDNA obtained from the 5-Aza cultures treated, the following were used: • Eppendorf thermocycler Amplifier; • Specific primers designed with the help of the PrimerQuest program (http://biotools.idt.com) and Nucleotide database consultation (http://www.ncbi.nlm.nih.gov) and BLAST (Basic Local Alignment Search Tool) (http://www.ncbi.nlm.nih.gov/BLAST/).
The primers were purchased from New England Biolabs.
Amplification conditions: 95° C. for 10 minutes (initial denaturation), 30 cycles of 95° C. for 30 seconds (denaturation), 52° C. for 45 seconds (annealing), 72° C. for 45 seconds (extension), 72° C. for 10 minutes (final extension). The reaction mixture was prepared with 1 μl of cDNA, 1 μl of dNtPs Mix (10 mM), 1.25 μl of MgCl2 solution (25 mM), 1.25 μl of buffer 10×, 0.2 μl of Ampli Taq Gold (5U μl) (Applied Biosystem), 1 μl of specific sense primer and 1 μl of antisense primer (10 μM), […] of H2O RNase free in a final volume of 12.5 μl.
The expression of the late-phase adipogenic markers (leptin, GLUT-4), precocious-phase markers (PPAR-γ, CEBP-α) and markers typical of the undifferentiated embryonic state (OCT4, SOX2, NANOG, SSEA-1, alkaline phosphatase) was evaluated by means of PCR and RT-PCR.

adipose cells = assay: Cell growth determination by BrdU incorporation; format: cell-based, human; details: adipose cells treated
embryoid bodies = details: 1 μM, 6 hours; cited from earlier work
mature adipose cells = assay: Morphological analysis of treated cultures by optical (phase contrast) microscopy
Description: Human pre-adipocytes and embryonic cell lines 3T3-L1 were sown at a density of 5×10^3 cells/cm^2 and cultivated in Petri plates in a proliferative medium (DMEM-F12, 10% Fetal Calf Serum (FCS), 1% antibiotic-fungizone (AF)) until the maximum cell confluence is reached. The differentiative induction is obtained by 48 hour treatment in specific medium consisting of DMEM, 10% Fetal Bovine Serum (FBS), 1 AF and specific differentiating factors (insulin, isobutylmethylxanthine, dexamethasone, indomethacin). The mature differentiated form (univacuolar phenotype) is reached after culture of 7-10 days in maintenance medium, free of adipogenic inductive agents. Immunofluorescence studies verify the expression of leptin, a hormone typically expressed by adipocytes in adult phase.
The mature adipose cells were maintained in a culture with DMEM, 10% FBS, 1 AF for two weeks, under continuous stimulation of 5′ Azacytidine at molar concentrations of 0.1 μM, 1 μM, 10 M, 100 μM, 125 μM, 150 μM, 175 μM, 250 μM.

Nc1ncn([C@@H]2O[C@H](CO)[C@@H](O)[C@H]2O)c(=O)n1 [5-Azacytidine, 5′ Aza 2′ cytidine]
apoptotic phenomena (adipocytes; 125 μM, 25 hours after treatment): 15%
apoptotic phenomena (adipocytes; 125 μM, 48 hours after treatment): 15%
apoptotic phenomena (adipocytes; 125 μM, 72 hours after treatment): 10%
apoptotic phenomena (adipocytes; 150 μM, 25 hours after treatment): 22%
apoptotic phenomena (adipocytes; 150 μM, 48 hours after treatment): 28%
apoptotic phenomena (adipocytes; 150 μM, 72 hours after treatment): 10%
apoptotic phenomena (adipocytes; 175 μM, 25 hours after treatment): 38%
apoptotic phenomena (adipocytes; 175 μM, 48 hours after treatment): 41%
apoptotic phenomena (adipocytes; 175 μM, 72 hours after treatment): 10%
expression of the differentiative late-phase adipogenic markers [1]: a reduction in the expression
cell proliferation by incorporated BrdU (adipose cells): Cell proliferation is observed
colony growth process and sensitivity to LIF (embryoid bodies): re-established the colony growth process typical of stem cells and the sensitivity to LEUKEMIA INHIBITORY FACTOR (LIF)
apoptosis of treated cultures (FIG. 7) (mature adipose cells; 250 μM): a high apoptotic degree is observed
cell damage and/or cell proliferation (FIG. 8) (mature adipose cells; doses ≦0.1 μM): no signs of cell damage and/or cell proliferation
morphology of the plate (mature adipose cells; mainly at 1-10 μM and higher than 100 μM, 10 days of treatment, preliminary results): a change in the morphology of the plate
